According to PubChem BioAssay (NCI):
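Results reflect a 48-hour exposure of cells in 96-well plates to compound at five concentrations. TGI: concentration producing complete growth inhibition.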

What was measured:
Assay in all cases: NCI anticancer screen, dose series, 48 h
HOP-62 NSCLC = test system: HOP-62 NSCLC
MALME-3M melanoma = test system: MALME-3M melanoma
SNB-75 CNS = test system: SNB-75 CNS
HT29 colon = test system: HT29 colon
HL-60(TB) leukemia = test system: HL-60(TB) leukemia
DLD-1 colon = test system: DLD-1 colon
XF 498 CNS = test system: XF 498 CNS
SK-MEL-5 melanoma = test system: SK-MEL-5 melanoma
HCT-116 colon = test system: HCT-116 colon
PC-3 prostate = test system: PC-3 prostate
T-47D breast = test system: T-47D breast

| Structure (SMILES) | TGI (HOP-62 NSCLC) [µM] | TGI (MALME-3M melanoma) [µM] | TGI (SNB-75 CNS) [µM] | TGI (HT29 colon) [µM] | TGI (HL-60(TB) leukemia) [µM] | TGI (DLD-1 colon) [µM] | TGI (XF 498 CNS) [µM] | TGI (SK-MEL-5 melanoma) [µM] | TGI (HCT-116 colon) [µM] | TGI (PC-3 prostate) [µM] | TGI (T-47D breast) [µM] |
| --- | --- | --- | --- | --- | --- | --- | --- | --- | --- | --- | --- |
| CCCCCc1cc(OC(=O)c2c(O)cc(OC)cc2CCCCC)cc(O)c1C(=O)O | 30.7 | 26.1 | 32.5 | 29.9 | 60.2 | 26.7 | 32.5 | 28.5 |  |  |  |
| COc1ccc2[nH]c3c(c2c1)CCN(C)CC3 | > 100 | > 100 | > 100 | > 100 | > 100 | > 100 | > 100 | > 100 | > 100 |  |  |
| CCCCOC(=O)CNC(=O)OCCCCC#CC#CCCCCOC(=O)NCC(=O)OCCCC | > 100 | > 100 | > 100 | > 100 | > 100 | > 100 | > 100 | > 100 | > 100 |  |  |
| O=C(c1ccc(Cl)cc1)c1ccc(OCC(=O)N2CCN(c3ccccc3)CC2)cc1 | > 100 | > 100 | > 100 | > 100 | > 100 | > 100 | > 100 | > 100 | > 100 |  |  |
| CCOC(=O)/C(O)=C1\C(=O)N(C)C(=O)C1c1ccc(OC)c(OC)c1 (centres undefined) | > 100 | > 100 | > 100 | > 100 | > 100 | > 100 | > 100 | > 100 | > 100 |  |  |
| Cc1ccc(C(=O)N(C2CCCCC2)C2CCCCC2)cc1N=NN(C)C | 25.2 | 31 |  | 16.6 | 23.7 | 28.6 |  | 28.1 | 27.8 | 22.2 | 38.7 |
| COc1cccc2cc(C)c(C(=O)c3ccccc3)nc12 | > 100 | > 100 | > 100 |  |  | > 100 | > 100 | > 100 | > 100 |  |  |
| Cn1ccnc1S/C(=C\C=C(C#N)C#N)c1ccc(Cl)cc1 | 11.1 | 3.27 | 12.5 | 16.2 | 3.42 |  |  | 3.59 | 1.58 | 9.22 | > 100 |
| N/N=C(\C(=O)Nc1c(Cl)cc([N+](=O)[O-])cc1Cl)C(c1cnc2ccc([N+](=O)[O-])cc2n1)[N+](=O)[O-] (centres undefined) | > 100 |  | > 100 | > 100 | > 100 | > 100 | > 100 | > 100 | > 100 |  |  |
| Cc1ccc2c(=O)cc(-c3csc4ccccc34)[nH]c2n1 | 21.8 | 54.6 | > 51.2 | 0.0481 | 0.0258 |  |  | 1.05 | 9.38 | 0.0198 | > 100 |
| CCC1C(=O)C[C@H]2[C@@H]3C(O)CC4=CC(=O)CC[C@]4(C)[C@H]3CC[C@]12C (some centres undefined) | > 50 | > 50 | > 50 | > 50 | > 50 |  |  | > 50 | > 50 | > 50 | > 50 |
| Oc1ccc(/C=C\c2nnc(/C=C\c3ccc(O)c(O)c3)s2)cc1O | 21.8 | 17.7 | 15.3 | > 75.8 | 2.94 |  |  | 13.9 | 13 | 29.3 | 5.37 |
| CC(=O)C1CC(C)=CCC12C(=O)Nc1ccccc12 (centres undefined) | > 100 | > 100 | > 100 | > 100 | > 100 | > 100 | > 100 | > 100 | > 100 |  |  |
| CC(C)(CN)CN | > 100 | > 100 | > 100 | > 100 | > 100 |  |  | > 100 | > 100 | > 100 | > 100 |
| N=C(N)SCCON1C(=O)c2ccccc2C1=O | > 100 | > 100 | > 100 | > 100 | > 100 |  |  | > 100 | > 100 | > 100 | > 100 |
| CCCCOC(=O)C(=O)C(CCC(=O)c1ccc(C)cc1)C(=O)C=C(C)C (centres undefined) | > 100 | > 100 | > 100 | > 100 | > 100 |  |  | > 100 | > 100 | > 100 | > 100 |
| CCNC(=O)Nc1cccc(C)n1 | > 100 | > 100 | > 100 | > 100 | > 100 |  |  | > 100 | > 100 | > 100 | > 100 |

| Structure (SMILES) | TGI (HOP-62 NSCLC) [µM] | TGI (MALME-3M melanoma) [µM] | TGI (SNB-75 CNS) [µM] | TGI (HT29 colon) [µM] | TGI (HL-60(TB) leukemia) [µM] | TGI (DLD-1 colon) [µM] | TGI (XF 498 CNS) [µM] | TGI (SK-MEL-5 melanoma) [µM] | TGI (HCT-116 colon) [µM] | TGI (PC-3 prostate) [µM] | TGI (T-47D breast) [µM] |
| --- | --- | --- | --- | --- | --- | --- | --- | --- | --- | --- | --- |
| COC(=O)/C=C/c1ccccc1N=[S@](C)(=O)c1ccc(C)cc1 | > 100 | > 100 | 36.1 | > 100 | 7.25 |  |  | 38.3 | 71.8 | > 100 | > 100 |
| Cc1ccc([N+](=O)[O-])cc1S(=O)(=O)Nc1ccc(C2=NN(c3ccc([N+](=O)[O-])cc3[N+](=O)[O-])C(c3ccccc3)C2)cc1 (centres undefined) | 33 | 41.6 | 52.4 | 37.6 | 57.5 |  |  | 25.1 | 27.4 | 28.8 | > 100 |
| CC(C)(CO)CNc1cc(=O)[nH]c(N)n1 | > 100 | > 100 | > 100 | > 100 | > 100 |  |  | > 100 | > 100 | > 100 | > 100 |
| COc1ccc2c3c1OC1CC(O)C=CC31CCN(C)C2 (centres undefined) | > 150 | > 150 | > 150 | > 150 | > 150 | > 54.1 | > 150 | > 150 | > 150 |  |  |
| CC(C)Oc1c(-c2c(OC(C)C)c(=O)c2=O)c(=O)c1=O | > 85.2 | 4 | > 71.2 | > 58.3 | > 100 |  |  | > 61.8 | > 51 | > 100 | > 100 |
| CC(C)/C(Cl)=N/OC(=O)Nc1ccc(F)c(Cl)c1 | 32.8 | 4.08 | 32 | 13.3 | 5.23 |  |  | 28.2 | 6.77 | 29.8 | 12.7 |
| CCN(CC)Cc1nc2sc3c(c2c(=O)n1-c1ccccc1)CCCC3 | 86.7 | 45.5 | 47.4 | 29.3 | > 100 |  |  | 31.7 | 39.4 | 34 | 44.7 |
| COc1cc(OC)c2c(O)cc(CC(C)O)cc2c1 (centres undefined) | > 100 | > 100 | > 100 | > 100 | > 100 | > 100 | > 100 | > 100 | > 100 |  |  |
| COC1C(O)CC(OC2C(C)OC(Oc3cc(O)c4c(O)c5c(cc4c3)C[C@@H]([C@H](OC)C(=O)[C@@H](O)[C@@H](C)O)[C@H](OC3CC(OC4CC(OC6CC(C)(O)C(O)C(C)O6)C(O)C(C)O4)C(O)C(C)O3)C5=O)CC2OC(C)=O)OC1C (some centres undefined) | > 100 | > 100 | > 100 | > 100 | > 100 |  |  | > 100 | > 100 | > 100 | > 100 |
| CCc1cccc(C(C)C)c1NC(=O)C(=O)C(Cc1nc2ccccc2[nH]c1=O)C(=O)OC (centres undefined) | > 100 | > 100 | > 100 | > 100 | > 100 | > 100 | > 100 | > 100 | > 100 |  |  |
| O=C(Nc1ccccc1)O/N=C(/CBr)c1ccccc1 | 68.7 | 33.9 | 30.5 | > 100 | 32.5 |  |  | 28.1 | 20 | 30.3 | 32.6 |
| Cc1ccc(N=Nc2c(C)nn(C(=O)CC(=O)Nc3ccccc3)c2C)cc1C | > 100 | > 100 | > 100 | > 100 | > 100 |  |  | > 100 | > 100 | > 100 | > 100 |
| COc1cc2c(cc1C[N+](C)(C)CSc1ccccc1)-c1ccccc1CC2 | 27.1 | 6.23 | 6.17 | 13.1 | 2.46 |  |  | 2.39 | 13.1 | 11 | 16.2 |
| CC(=O)NNc1nc(C)c(C(/C=C/c2ccc3c(c2)OCO3)=N/Nc2ccccc2)s1 | > 100 | > 100 | > 100 | > 100 | > 100 |  |  | > 100 | > 100 | > 100 | > 100 |
| c1ccc(CNc2c3c(nc4ccccc24)CCC3)cc1 | 25.6 | 33.4 | 43.5 | 50.1 | 0.146 |  |  | 24.4 | 24.9 | 33.3 | 38.7 |
| COC(=O)Cc1ccc2c(c1)Sc1ccc(CC(=O)OC)cc1N2C | > 100 | 80.6 | > 93.4 | > 100 | > 93.3 |  |  | 26.3 | > 100 | > 100 | > 100 |
| CCCC/C=C1\CCC(CN2CCCCC2)C1=O (centres undefined) | 49.4 | 15.4 | > 100 | 23.7 | 14.4 | 3.25 | 6.58 | 42.6 | 36.7 | > 100 | > 100 |
